Measurements from US20090005396A1, “Use of Pyrazolyl-Pyrimidine Derivatives in the Treatment of Pain” (ASTRAZENECA AB, priority 2005, published 2009).

Assays:
human TrkA kinase = target: T1, human TrkA kinase (Homo sapiens, UniProt P04629); test: TrkA kinase assay (AlphaScreen); assay type: biochemical; conditions: intracellular domain of His-tagged human TrkA, 20 μM ATP (=Km)
T1 construct: The intracellular domain of a His-tagged human TrkA kinase; His; made in house; host or cells: High Five insect cells
T1 sequence (P04629 440-796 limits assumed): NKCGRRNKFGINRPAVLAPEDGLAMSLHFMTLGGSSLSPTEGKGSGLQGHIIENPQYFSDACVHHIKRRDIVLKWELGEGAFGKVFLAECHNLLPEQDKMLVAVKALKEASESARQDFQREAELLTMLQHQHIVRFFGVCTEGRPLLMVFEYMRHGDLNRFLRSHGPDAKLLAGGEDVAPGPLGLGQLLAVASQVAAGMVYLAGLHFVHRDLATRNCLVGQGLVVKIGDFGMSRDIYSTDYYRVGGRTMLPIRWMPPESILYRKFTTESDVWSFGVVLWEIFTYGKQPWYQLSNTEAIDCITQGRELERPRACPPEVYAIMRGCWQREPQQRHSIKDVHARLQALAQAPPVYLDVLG
Protocol: TrkA kinase activity is measured in 384-well format using AlphaScreen technology. […] The intracellular domain of a His-tagged human TrkA kinase was expressed in High Five cells. The kinase was incubated with ATP and the biotinylated substrate for 15 minutes at room temperature. The reactions were then stopped by the addition of EDTA, anti-phosphotyrosine antibody (PT-100) coated acceptor beads and streptavidin coated donor beads. After 2 h of incubation in the dark at room temperature, the product was detected using a Fusion Alpha instrument. […] Termination/Detection conditions: 25 mM HEPES pH 7.4, 100 mM NaCl, 48 mM EDTA, 0.1% BSA and 20 μg/ml of donor and acceptor beads.
(§1) When tested in the above in-vitro assay the Trk inhibitory activity of the following examples was measured at the following IC50s.

human TrkB kinase = target: T2, human TrkB kinase (Homo sapiens, UniProt Q16620); test: TrkB kinase assay (HTRF); assay type: biochemical; conditions: intracellular domain of HIS-tagged human TrkB
T2 construct: The intracellular domain of a HIS-tagged human TrkB kinase; HIS; made in house; host or cells: SF9 insect cells
T2 sequence (Q16620 455-822 limits assumed): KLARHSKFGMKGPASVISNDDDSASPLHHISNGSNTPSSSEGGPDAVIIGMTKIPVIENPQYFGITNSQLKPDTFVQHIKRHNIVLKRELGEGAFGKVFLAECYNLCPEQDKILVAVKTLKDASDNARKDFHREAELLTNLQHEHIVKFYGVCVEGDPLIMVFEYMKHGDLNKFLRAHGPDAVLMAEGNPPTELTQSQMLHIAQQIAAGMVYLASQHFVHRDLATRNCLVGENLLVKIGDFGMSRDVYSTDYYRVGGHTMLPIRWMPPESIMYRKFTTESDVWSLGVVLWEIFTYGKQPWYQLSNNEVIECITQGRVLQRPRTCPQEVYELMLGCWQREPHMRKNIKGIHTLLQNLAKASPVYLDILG
Protocol: TrkB kinase activity is being measured against its ability to phosphorylate synthetic tyrosine residues within a generic polypeptide substrate using homogenous time-resolved fluorescence (HTRF) technology. The intracellular domain of a HIS-tagged human TrkB kinase was expressed in SF9 cells and purified using standard nickel column chromatography. After the kinase is incubated with a biotinylated substrate and ATP for 50 minutes at room temperature, the kinase reaction is stopped by the addition of 60 mM EDTA. The reaction is performed in 384 well microtitre plates and reaction products are detected with the addition of strepavidin-linked and phosphotyrosine-specific antibodies using the Tecan Ultra Evolution Microplate Fluometer after an additional 3-hour incubation at room temperature.
as §1

[1] = tested on: carrageenan monoarthritis; test: Rat carrageenan test (carrageenan monoarthritis, pain score); assay type: in vivo; conditions: oral, 80 μmol/kg
Protocol: The compounds used according to the invention when given by systemic administration to mice or rats, specifically reduce pain in the rat carrageenan test as described by Tonussi and Ferreira (Pain 1992, 48, 421-427).
Description of the Rat Carrageenan Test
Experimental procedures. Under isoflurane anesthesia, 40 μL of carrageenan (7.5 mg/mL) was injected into the left tibio-tarsal (ankle) joint from the dorsal side. The injection causes a localized inflammation increasing to a maximum between 4 h to 6 h after induction, after which it gradually decreases, and the animals display decreased weight bearing on and guarding of the limb.
(2R)-2-{[5-Chloro-4-(1H-pyrazol-5-ylamino)pyrimidin-2-yl]amino}-2-(4-fluorophenyl)ethanol was administered 30 min before induction of monoarthritis. The rats were placed in an acrylic chamber and videotaped for 5 min from underneath, 2 h, 2 h30, 3 h, 3 h30, 5 h after drug administration. Subsequently, the weight the rats were willing to put on the injected paw was scored as described in the table below, and defined as the “Pain Score”: […]
Data analysis. Two Way Repeated Measures ANOVA (one factor repetition) followed by Newmans-Keuls method for all pairwise multiple comparison procedures (SigmaStat® 2.03) was used to evaluate group effects. The level of significance was set at p<0.05.

[2] = tested on: mechanical hypersensitivity; conditions: injected into rats with pancreatite; cited from earlier work

Row | Compound | IC50 (human TrkA kinase) [nM] | IC50 (human TrkB kinase) [nM] | signs of side-effects [1] | pain score induced by carrageenan monoarthritis ([1]; given 30 min before induction, within 5 hours after administration, p<0.05) | mechanical hypersensitivity [2]
1 | OC[C@H](Nc1ncc(Cl)c(Nc2ccn[nH]2)n1)c1ccc(F)cc1 [(2R)-2-{[5-Chloro-4-(1H-pyrazol-5-ylamino)pyrimidin-2-yl]amino}-2-(4-fluorophenyl)ethanol] |  |  | did not show signs of side-effects | significantly reduced | 
2 | COC(=O)[C@@]1(O)C[C@H]2O[C@]1(C)n1c3ccccc3c3c4c(c5c6ccccc6n2c5c31)C(=O)NC4 [Compound K252a, K252a] |  |  |  |  | could suppress mechanical hypersensitivity
3 | C[C@H](Nc1ncc(Cl)c(Nc2cc(C3CC3)n[nH]2)n1)c1ccc(F)cc1 [5-Chloro-N^4-(5-cyclopropyl-1H-pyrazol-3-yl)-N^2-[(1S)-1-(4-fluorophenyl)ethyl]pyrimidine-2,4-diamine] | 35 | 140 |  |  | 

Second part, led by results:

Row | IC50 (human TrkA kinase) [nM] | IC50 (human TrkB kinase) [nM] | Compound | signs of side-effects [1] | pain score induced by carrageenan monoarthritis ([1]; given 30 min before induction, within 5 hours after administration, p<0.05) | mechanical hypersensitivity [2]
4 | 75 | 260 | OC[C@H](Nc1ncc(F)c(Nc2cc(C3CC3)[nH]n2)n1)c1ccc(F)cc1 [(2R)-2-({4-[(5-Cyclopropyl-1H-pyrazol-3-yl)amino]-5-fluoropyrimidin-2-yl}amino)-2-(4-fluorophenyl)ethanol] |  |  | 
5 | 39 | 220 | OCC[C@H](Nc1ncc(Cl)c(Nc2cc(C3CC3)[nH]n2)n1)c1ccc(F)cc1 [(3S)-3-({4-[(5-Cyclopropyl-1H-pyrazol-3-yl)amino]-5-chloropyrimidin-2-yl}amino)-3-(4-fluorophenyl)propan-1-ol] |  |  | 
